Experiments:
Test in all cases: relative viability (nuclei count vs DMSO), 5 days (fraction); higher = more cells survive
BAY61-3606 + Palbociclib = compound: COC1=C(C=C(C=C1)C2=CC3=NC=CN3C(=N2)NC4=C(C=CC=N4)C(=O)N)OC [BAY61-3606] + CC(=O)c1c(C)c2cnc(Nc3ccc(N4CCNCC4)cn3)nc2n(C2CCCC2)c1=O [Palbociclib] (partner 0.5 µM)
In short: (§1)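 For relative viability, nuclei counts in treated wells were divided by those in vehicle wells. Lung cancer cell lines had been pin-tool dosed in 1536-well plates the day after seeding and cultured for 5 days, then fixed and stained in one step (final 0.05% Triton X-100, 1% formaldehyde, 1 ug/ml Hoechst) and imaged at 4×. Doses were one drug alone or a fixed anchor-drug dose plus five library-drug doses (not always all listed) in √10 steps, and values are duplicate-plate medians.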

BAY61-3606 + AZD7762 = compound: COC1=C(C=C(C=C1)C2=CC3=NC=CN3C(=N2)NC4=C(C=CC=N4)C(=O)N)OC [BAY61-3606] + NC(=O)Nc1cc(-c2cccc(F)c2)sc1C(=O)N[C@H]1CCCNC1 [AZD7762] (partner 0.2 µM)
In short: as §1

Doxorubicin + Decitabine = compound: COc1cccc2c1C(=O)c1c(O)c3c(c(O)c1C2=O)C[C@@](O)(C(=O)CO)C[C@@H]3O[C@H]1C[C@H](N)[C@H](O)[C@H](C)O1 [Doxorubicin] + Nc1ncn([C@H]2C[C@H](O)[C@@H](CO)O2)c(=O)n1 [Decitabine] (partner 2 µM)
In short: as §1

Doxorubicin + Crizotinib = compound: COc1cccc2c1C(=O)c1c(O)c3c(c(O)c1C2=O)C[C@@](O)(C(=O)CO)C[C@@H]3O[C@H]1C[C@H](N)[C@H](O)[C@H](C)O1 [Doxorubicin] + C[C@@H](Oc1cc(-c2cnn(C3CCNCC3)c2)cnc1N)c1c(Cl)ccc(F)c1Cl [Crizotinib] (partner 1 µM)
In short: as §1

Cell Line | relative viability (BAY61-3606 + Palbociclib; first compound 0.02 µM) | relative viability (BAY61-3606 + Palbociclib; first compound 0.06325 µM) | relative viability (BAY61-3606 + Palbociclib; first compound 0.2 µM) | relative viability (BAY61-3606 + Palbociclib; first compound 0.6325 µM) | relative viability (BAY61-3606 + Palbociclib; first compound 2 µM) | relative viability (BAY61-3606 + AZD7762; first compound 0.02 µM) | relative viability (BAY61-3606 + AZD7762; first compound 0.06325 µM) | relative viability (BAY61-3606 + AZD7762; first compound 0.2 µM) | relative viability (BAY61-3606 + AZD7762; first compound 0.6325 µM) | relative viability (BAY61-3606 + AZD7762; first compound 2 µM) | relative viability (Doxorubicin + Decitabine; first compound 0.001 µM) | relative viability (Doxorubicin + Decitabine; first compound 0.003162 µM) | relative viability (Doxorubicin + Decitabine; first compound 0.01 µM) | relative viability (Doxorubicin + Decitabine; first compound 0.03162 µM) | relative viability (Doxorubicin + Decitabine; first compound 0.1 µM) | relative viability (Doxorubicin + Crizotinib; first compound 0.001 µM) | relative viability (Doxorubicin + Crizotinib; first compound 0.003162 µM) | relative viability (Doxorubicin + Crizotinib; first compound 0.01 µM) | relative viability (Doxorubicin + Crizotinib; first compound 0.03162 µM) | relative viability (Doxorubicin + Crizotinib; first compound 0.1 µM)
NCI-H2342 | 0.469 | 0.48 | 0.517 | 0.602 | 0.63 | 0.459 | 0.496 | 0.416 | 0.726 | 0.586 | 0.703 | 0.778 | 0.786 | 0.63 | 0.748 |  |  |  |  | 
HCC-15 | 0.803 | 0.673 | 0.708 | 0.768 | 0.601 | 1.31 | 0.919 | 1.29 | 1.25 | 1.16 | 0.628 | 0.704 | 0.571 | 0.408 | 0.211 | 0.733 | 0.817 | 0.767 | 0.551 | 0.534
A-427 | 0.484 | 0.521 | 0.544 | 0.524 | 0.479 | 0.831 | 0.689 | 0.659 | 0.752 | 0.682 | 0.585 | 0.625 | 0.553 | 0.456 | 0.4 | 0.855 | 1.02 | 0.897 | 0.978 | 0.88
NCI-H2347 | 0.444 | 0.41 | 0.449 | 0.452 | 0.436 | 0.801 | 0.701 | 0.73 | 0.67 | 0.709 | 0.612 | 0.71 | 0.646 | 0.539 | 0.557 | 0.869 | 0.735 | 0.735 | 0.603 | 0.503
NCI-H1755 | 0.435 | 0.451 | 0.482 | 0.495 | 0.444 | 0.439 | 0.483 | 0.462 | 0.422 | 0.59 | 0.774 | 0.763 | 0.736 | 0.714 | 0.743 | 0.867 | 0.943 | 0.862 | 0.915 | 0.887
SK-LU-1 | 0.356 | 0.384 | 0.35 | 0.357 | 0.289 |  |  |  |  |  | 0.68 | 0.745 | 0.554 | 0.445 | 0.473 | 1.15 | 1.03 | 0.639 | 0.472 | 0.32
NCI-H1975 | 0.616 | 0.628 | 0.526 | 0.504 | 0.347 | 0.706 | 0.603 | 0.621 | 0.654 | 0.348 | 0.391 | 0.393 | 0.392 | 0.317 | 0.322 | 0.853 | 1.09 | 0.946 | 0.431 | 0.423
NCI-H1703 |  |  |  |  |  | 0.119 |  |  | 0.108 | 0.137 |  |  |  |  |  | 0.578 | 0.789 | 0.365 | 0.179 | 0.0887
HCC-44 | 0.959 | 0.941 | 0.924 | 0.968 | 1.13 | 1.01 | 1.1 | 0.962 | 1.01 | 1.1 | 1.01 | 1.01 | 0.902 | 0.964 | 0.977 | 0.868 | 0.915 | 0.824 | 0.81 | 0.785
NCI-H1793 | 0.27 | 0.283 | 0.337 | 0.335 | 0.474 | 0.483 | 0.277 | 0.448 | 0.636 | 0.504 |  | 0.482 | 0.501 | 0.403 | 0.456 |  |  |  |  | 
NCI-H596 |  |  |  |  |  | 1.04 | 0.929 | 1.13 | 1.7 | 0.846 | 1.97 | 1.09 | 1 | 0.86 | 1.08 | 0.984 | 1.13 | 0.916 | 0.91 | 0.933
PC-3 [JPC-3] | 0.531 | 0.512 | 0.529 | 0.521 | 0.517 | 0.675 | 0.794 | 0.809 | 0.801 | 0.752 | 0.765 | 0.803 | 0.907 | 0.829 | 0.732 | 0.999 | 1 | 0.977 | 0.931 | 0.936
HCC-366 | 0.44 | 0.46 | 0.324 | 0.326 | 0.255 | 0.286 | 0.222 | 0.282 | 0.265 | 0.283 | 0.334 | 0.35 | 0.281 | 0.309 | 0.334 |  | 0.697 | 0.509 | 0.236 | 0.333
Calu-6 |  |  |  |  |  |  |  |  |  |  |  |  |  |  |  | 0.776 | 0.708 | 0.52 | 0.229 | 0.171
LCLC-103H | 0.473 | 0.508 | 0.449 | 0.462 | 0.481 | 0.762 | 0.704 | 0.836 | 0.758 | 0.769 | 0.751 | 0.747 | 0.75 | 0.789 | 0.73 | 1.07 | 1.06 | 1.03 | 1.06 | 1.19
CAL-12T | 0.634 | 0.504 | 0.615 | 0.287 | 0.246 | 0.693 | 0.577 | 0.677 | 0.634 | 0.71 |  |  |  |  |  | 0.671 | 0.507 | 0.566 | 0.182 | 0.116
NCI-H23 | 0.646 | 0.484 | 0.549 | 0.509 | 0.371 | 0.227 | 0.192 | 0.251 | 0.265 | 0.224 | 0.335 | 0.304 | 0.335 | 0.284 | 0.365 |  | 0.479 | 0.507 | 0.298 | 0.449
NCI-H1651 | 0.558 | 0.511 | 0.513 | 0.573 | 0.523 | 0.517 | 0.454 | 0.463 | 0.52 | 0.498 | 0.534 | 0.63 | 0.638 | 0.506 | 0.571 | 0.934 | 0.929 | 0.855 | 0.836 | 0.871

Source: the supplement of paper PMC10307832
